Test results: patent US9682966B2, “Kappa opioid ligands” (The Scripps Research Institute, priority 2012, dated 2017)
pIC50: −log10 of the molar value.

Each compound was assayed against kappa opioid receptor (OPRK1) (Homo sapiens (Human), UniProt P41145) (assay: OPRK1 antagonist assay (b-arrestin-2-TEV / b-lactamase reporter, EC80 U-50488 challenge)). Details: % inhibition to which the printed IC50 value refers, if other than 50%.
Sequence of kappa opioid receptor (OPRK1) (P41145 whole entry): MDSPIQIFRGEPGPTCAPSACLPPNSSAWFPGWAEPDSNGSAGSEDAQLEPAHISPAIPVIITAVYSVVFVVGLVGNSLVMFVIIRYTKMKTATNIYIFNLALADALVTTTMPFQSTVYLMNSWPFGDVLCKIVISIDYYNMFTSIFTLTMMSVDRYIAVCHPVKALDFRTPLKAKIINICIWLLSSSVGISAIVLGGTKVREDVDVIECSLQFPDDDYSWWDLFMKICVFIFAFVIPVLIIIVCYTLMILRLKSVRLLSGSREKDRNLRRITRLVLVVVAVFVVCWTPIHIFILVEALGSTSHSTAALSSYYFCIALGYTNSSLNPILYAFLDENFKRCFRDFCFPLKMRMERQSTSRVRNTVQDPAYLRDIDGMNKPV
Type: cell-based
In the case of `COC(=O)c1cc(Br)cnc1N1CCC(NCCO)CC1` [compound 6], the “% inhib if other than 50%” value was 80%.
In the case of `O=C(O)c1cc(Br)cnc1N1CCC(NC2CCCCC2)CC1` [compound 34], the “% inhib if other than 50%” value was 85%.

Same assay, conditions: OPRK1 antagonist assay vs EC80 U-50488
With `COC(=O)c1cc(Br)cnc1N1CCC(N)CC1` [C1] the pIC50 was under 5.00.
Compound `COC(=O)c1cc(Br)cnc1N1CCC(NC(=O)OC(C)(C)C)CC1` [C2] has a pIC50 of under 5.00.
With `COC(=O)c1cc(Br)cnc1N1CCC(N2CCOCC2)CC1` [C5] the pIC50 was under 5.00.
In the case of `COC(=O)c1cc(Br)cnc1N1CCC(NC2CCC(O)CC2)CC1` (stereo not shown) [C6], the pIC50 was under 5.00.
`COC(=O)c1cc(Br)cnc1N1CCC(Nc2ccccc2)CC1` [C7] was tested, and the pIC50 was under 5.00.
Work on `COC(=O)c1cc(Br)cnc1N1CCC(N2CCN(C)CC2)CC1` [C8] yielded a pIC50 of under 5.00.
`COC(=O)c1cc(Br)cnc1N1CCC(N[C@@H]2CCCCC[C@@H]2O)CC1` [C9] was tested, and the pIC50 was under 5.00.
`O=C(c1ccccc1)N1CCC(N[C@@H]2CCCC[C@H]2O)CC1` [C10] gave a pIC50 of under 5.00.
With `Cc1cc(Cl)nc(N2CCC(N[C@@H]3CCCC[C@H]3O)CC2)c1C#N` [C11] the pIC50 was under 5.00.
`O[C@@H]1CCCC[C@H]1NC1CCN(c2ccc(Cl)cn2)CC1` [C12] showed a pIC50 of under 5.00.
`COC(=O)c1cc(-c2ccccc2)cnc1N1CCC(NC2CCCCC2)CC1` [C13] gave a pIC50 of under 5.00.
With `COC(=O)c1cc(Br)cnc1N1CCCC(NC2CCCCC2)C1` (stereo not shown) [C14] the pIC50 was under 5.00.
`COC(=O)c1cc(C2CC2)cnc1N1CCC(NC2CCCCC2)CC1` [C15] showed a pIC50 of under 5.00.
`COC(=O)c1cc(Br)cnc1N1CCC(CN)CC1` [C16] showed a pIC50 of under 5.00.
With `COC(=O)c1cc(C2=CCCCC2)cnc1N1CCC(NC2CCCCC2)CC1` [C17] the pIC50 was under 5.00.
`CCN(CC)C(=O)c1cc(Br)cnc1N1CCC(NC2CCCCC2)CC1` [C18] showed a pIC50 of under 5.00.
For `CN(C)C(=O)c1cc(Br)cnc1N1CCC(NC2CCCCC2)CC1` [C19], the pIC50 was under 5.00.
`COC(=O)c1cc(Br)cnc1N1CCC(NC2CCCCC2)(C(=O)OC)CC1` [C21] was tested, and the pIC50 was under 5.00.
`COC(=O)c1cc(Br)cnc1N1CCC(NCc2ccccc2O)CC1` [C22] was tested, and the pIC50 was under 5.00.
With `COC(=O)c1cc(Br)cnc1N1CCC(NCc2ccccc2OC)CC1` [C23] the pIC50 was under 5.00.
`COC(=O)c1ccc(C(F)(F)F)nc1N1CCC(NC2CCCCC2)CC1` [C24] gave a pIC50 of under 5.00.
With `FC(F)(F)c1cc(Br)cnc1N1CCC(NC2CCCCC2)CC1` [C25] the pIC50 was under 5.00.
In the case of `CCOC(=O)c1c(C(F)(F)F)ccnc1N1CCC(NC2CCCCC2)CC1` [C26], the pIC50 was under 5.00.
`CCOC(=O)c1cc(C(N)=O)c(C)nc1N1CCC(NC2CCCCC2)CC1` [C28] showed a pIC50 of under 5.00.
`O=C(O)c1cc(Br)cnc1N1CCC(NC2CCCCC2)CC1` [C29] showed a pIC50 of under 5.00.
For `COC(=O)c1cc(NS(C)(=O)=O)cnc1N1CCC(NC2CCCCC2)CC1` [C30], the pIC50 was under 5.00.
In the case of `COCCOC(=O)c1cc(Br)cnc1N1CCC(NC2CCCCC2)CC1` [C31], the pIC50 was under 5.00.
With `CCCCOC(=O)c1cc(Br)cnc1N1CCC(NC2CCCCC2)CC1` [C32] the pIC50 was under 5.00.
`COC(=O)c1cc(NC(=O)CCN(C)C)cnc1N1CCC(NC2CCCCC2)CC1` [C33] showed a pIC50 of under 5.00.
Compound `COC(=O)c1cc(NC(=O)c2cc(C)on2)cnc1N1CCC(NC2CCCCC2)CC1` [C34] has a pIC50 of under 5.00.
`COC(=O)c1cc(NC(=O)C(C)(C)C)cnc1N1CCC(NC2CCCCC2)CC1` [C37] gave a pIC50 of under 5.00.
Work on `COC(=O)c1cnc(N2CCC(NC3CCCCC3)CC2)c(N)c1` [C38] yielded a pIC50 of under 5.00.
With `COC(=O)c1cnc(N2CCC(NC3CCCCC3)CC2)c(NC(C)=O)c1` [C39] the pIC50 was under 5.00.
With `COC(=O)c1cnc(N2CCC(NC3CCCCC3)CC2)c(NS(C)(=O)=O)c1` [C40] the pIC50 was under 5.00.
`COC(=O)c1cc(NC(=O)CN)cnc1N1CCC(NC2CCCCC2)CC1` [C41] gave a pIC50 of under 5.00.
For `COC(=O)c1cnc(N2CCC(NC3CCCCC3)CC2)c(Br)c1` [C43], the pIC50 was 4.82.
In the case of `COC(=O)c1cnc(N2CCC(N(C(=O)OC(C)(C)C)C3CCCCC3)CC2)c(Br)c1` [C44], the pIC50 was under 5.00.
With `O=Cc1cc(Br)cnc1N1CCC(NC2CCCCC2)CC1` [C45] the pIC50 was under 5.00.
`O=Cc1cc(Br)cnc1N1CCC(NC2CCCCC2)C(CO)C1` (stereo not shown) [C46] showed a pIC50 of under 5.00.
With `O=Cc1cc(Br)cnc1N1CCC(NC2CCCCC2)C(O)C1` (stereo not shown) [C47] the pIC50 was under 5.00.
With `COC(=O)c1cc(Br)cnc1N1CCC(N(C(C)=O)C2CCCCC2)C(OC(C)=O)C1` (stereo not shown) [C48] the pIC50 was under 5.00.
For `COC(=O)c1cc(Br)cnc1N1CCC(OC2CCCCC2O)CC1` (stereo not shown) [C50], the pIC50 was under 5.00.
With `COC(=O)c1cc(C#N)c(N2CCC(NC3CCCCC3)CC2)nc1C` [C55] the pIC50 was under 4.70.
For `COC(=O)c1cc(C#N)c(N2CCC(NC3CCCCC3)C(CO)C2)nc1C` (stereo not shown) [C56], the pIC50 was under 4.70.
`COC(=O)c1cc(C#N)c(N2CCC(NC3CCCCC3)C(O)C2)nc1C` (stereo not shown) [C57] showed a pIC50 of under 4.70.
With `CC(=O)c1cc(C2CC2)cnc1N1CC[C@@H](NC2CCCCC2)[C@H](O)C1` [C62] the pIC50 was under 5.00.
Compound `CC(=O)c1cc(C2CC2)cnc1N1CCC(NC2CCCCC2)C(CO)C1` (stereo not shown) [C63] has a pIC50 of under 5.00.
Compound `CC(=O)c1cc(-c2ccccc2)cnc1N1CCC(NC2CCCCC2)C(CO)C1` (stereo not shown) [C64] has a pIC50 of under 5.00.
With `CC(=O)c1cc(-c2ccccc2)cnc1N1CC[C@@H](NC2CCCCC2)[C@H](O)C1` [C65] the pIC50 was under 5.00.
`Cc1ccc2nc(N3CCC(NC(=O)OC(C)(C)C)CC3)c(-c3nc(C)no3)cc2c1` [C71] showed a pIC50 of under 5.00.
In the case of `Cc1ccc2nc(N3CCC(NC(C)CC(C)C)CC3)c(-c3nc(C)no3)cc2c1` (stereo not shown) [C72], the pIC50 was under 5.00.
Work on `Cc1ccc2nc(N3CCC(NC(C)C)CC3)c(-c3nc(C)no3)cc2c1` [C73] yielded a pIC50 of under 5.00.
Compound `Cc1ccc2nc(N3CCC(C)(NC4CCOCC4)CC3)c(-c3nc(C)no3)cc2c1` [C74] has a pIC50 of under 5.00.
In the case of `Cc1ccc2nc(N3CCC(C)(NC4CCCCC4)CC3)c(-c3nc(C)no3)cc2c1` [C75], the pIC50 was under 5.00.
`Cc1ccc2nc(N3CCN(CC4CCCCC4)C(CO)C3)c(-c3nc(C)no3)cc2c1` (stereo not shown) [C76] gave a pIC50 of under 5.00.
`Cc1ccc2nc(N3CCC(NC(=O)C4CCCCC4)CC3)c(-c3nc(C)no3)cc2c1` [C77] showed a pIC50 of under 5.00.
`CCC(CC)C(=O)NC1CCN(c2nc3ccc(C)cc3cc2-c2nc(C)no2)CC1` [C78] showed a pIC50 of under 5.00.
Work on `COC1CN(c2nc3ccccc3cc2-c2ncc(C)o2)CCC1NC1CCCCC1` (stereo not shown) [C79] yielded a pIC50 of under 5.00.
`Cc1ccc2nc(N3CCCC(NC4CCCCC4)CC3)c(-c3nc(C)no3)cc2c1` (stereo not shown) [C80] gave a pIC50 of under 5.00.
`Cc1cnc(-c2cc3ccccc3nc2N2CCC(NC3CCOCC3)CC2)o1` [C81] was tested, and the pIC50 was under 5.00.
For `Cc1ccc2nc(N3CCC(N)CC3)c(-c3nc(C)no3)cc2c1` [C82], the pIC50 was under 5.00.
With `Cc1ccc2nc(N3CCC(CNC4CCCCC4)CC3)c(-c3nc(C)no3)cc2c1` [C84] the pIC50 was under 5.00.
In the case of `Cc1ccc2nc(NCCCNC3CCOCC3)c(-c3nc(C)no3)cc2c1` [C85], the pIC50 was under 5.00.
`Cc1ccc2nc(NCCCNC3CCCCC3)c(-c3nc(C)no3)cc2c1` [C86] gave a pIC50 of under 5.00.
Work on `CNC(=O)c1cc2cc(C)ccc2nc1N1CCC(NC2CCCCC2)C(CO)C1` (stereo not shown) [C89] yielded a pIC50 of under 5.00.
Compound `Cc1noc(-c2cc3cc(C)c(C)cc3nc2N2CCC(NC3CCOCC3)CC2)n1` [C90] has a pIC50 of under 5.00.
`COC1CN(c2ncc(C)cc2-n2cc(C)cn2)CCC1NC1CCCCC1` (stereo not shown) [C92] gave a pIC50 of 4.24.
Work on `Cc1cnc(N2CCC(NCC(C)C)CC2)c(-c2ccc(C)nn2)c1` [C93] yielded a pIC50 of 4.99.
`COC(=O)c1cnc(N2CCC(NC3CCCCC3)C(CO)C2)c(Br)c1` (stereo not shown) [compound 102] gave a pIC50 of 4.89.
`COC(=O)c1cnc(N2CCC(NC3CCCCC3)C(O)C2)c(Br)c1` (stereo not shown) [compound 103] gave a pIC50 of 6.86.
In the case of `COC(=O)c1cnc(N2CC[C@@H](NC3CCCCC3)[C@H](O)C2)c(Br)c1` [compound 132], the pIC50 was 5.40.
In the case of `Cc1noc(-c2cc3c(nc2N2CC[C@@H](NC4CCCCC4)[C@H](O)C2)CCCC3)n1` [compound 192], the pIC50 was 6.70.
`COC1CN(c2nc3ccc(C)cc3cc2-c2noc(C)n2)CCC1NC1CCCCC1` (stereo not shown) [compound 314] was tested, and the pIC50 was 8.70.
Work on `CO[C@@H]1CN(c2nc3ccc(C)cc3cc2-c2nc(C)no2)CC[C@@H]1NC1CCCCC1` [compound 315] yielded a pIC50 of 8.40.
In the case of `Cc1ccc2nc(N3CCC(NC4CCCCC4)C(CO)C3)c(-c3noc(C)n3)cc2c1` (stereo not shown) [compound 328], the pIC50 was 9.14.
With `CO[C@@H]1CN(c2nc3ccccc3cc2-c2nc(C)no2)CC[C@@H]1NC1CCCCC1` [compound 329] the pIC50 was 7.91.
In the case of `CCc1noc(-c2cc3cc(C)ccc3nc2N2CC[C@H](NC3CCCCC3)[C@H](OC)C2)n1` [compound 330], the pIC50 was 8.31.
Work on `CO[C@H]1CN(c2nc3ccccc3nc2-c2nc(C)no2)CC[C@H]1NC1CCCCC1` [compound 333] yielded a pIC50 of 8.18.
With `CO[C@@H]1CN(c2nc3ccccc3nc2-c2nc(C)no2)CC[C@@H]1NC1CCCCC1` [compound 334] the pIC50 was 6.79.
`CCc1noc(-c2cc3cc(C)ccc3nc2N2CC[C@@H](NC3CCCCC3)[C@H](O)C2)n1` [compound 335] gave a pIC50 of 6.95.
Work on `CO[C@H]1CN(c2nc3ccc(C)cc3cc2-c2nc(C3CC3)no2)CC[C@H]1NC1CCCCC1` [compound 337] yielded a pIC50 of 9.14.
With `CO[C@H]1CN(c2ncc(C)cc2-c2nc(C)no2)CC[C@H]1N(C1CCCC1)C1CCCC1` [compound 339] the pIC50 was 7.54.
`CO[C@@H]1CN(c2nc3ccc(C)cc3cc2-c2nc(C3CC3)no2)CC[C@@H]1NC1CCCC1` [compound 340] was tested, and the pIC50 was 8.22.
In the case of `CO[C@@H]1CN(c2ncc(C)cc2-c2nc(C)no2)CC[C@@H]1NC1CCCCC1` [compound 341], the pIC50 was 7.12.
In the case of `CO[C@@H]1CN(c2nc(C)c(C)cc2-c2nc(C)no2)CC[C@@H]1NC1CCCCC1` [compound 342], the pIC50 was 7.32.
In the case of `CO[C@H]1CN(c2nc3ccccc3cc2-c2ccc(C)nn2)CC[C@H]1NC1CCCCC1` [compound 344], the pIC50 was 7.77.
`CO[C@@H]1CN(c2ncc(C)cc2-c2nc(C)no2)CC[C@@H]1NC1CCCC1` [compound 345] showed a pIC50 of 6.98.
`CO[C@@H]1CN(c2nc(C)c(C)cc2-c2nc(C)no2)CC[C@@H]1NC1CCCC1` [compound 346] was tested, and the pIC50 was 6.86.
For `CO[C@@H]1CN(c2nc3ccc(C)cc3cc2-c2nc(C)no2)CC[C@@H]1NC1CCCC1` [compound 347], the pIC50 was 7.49.
`COC1CN(c2ncc(C)cc2-n2ccc(C)n2)CCC1NC1CCCCC1` (stereo not shown) [compound 358] showed a pIC50 of 8.05.
`CO[C@H]1CN(c2nc3c(C)cc(C)cc3cc2-c2nc(C)no2)CC[C@H]1NC1CCCCC1` [compound 362] showed a pIC50 of 8.52.
`Cc1cc(C)c2nc(N3CCC(NC4CCOCC4)CC3)c(-c3nc(C)no3)cc2c1` [compound 363] was tested, and the pIC50 was 8.00.
